Values quoted from earlier work as cited in patent publication US20050136438A1, “Genetic analysis for stratification of cancer risk” (priority 2003, published 2005).
Counter-ions that a name gives are not always drawn.

Structure (SMILES): O=C(c1ccc(OCCN2CCCCC2)cc1)c1c(-c2ccc(O)cc2)sc2cc(O)ccc12 [Raloxifene HCl, methanone, [6-hydroxy-2-(4-hydroxyphenyl)benzo[b]thien-3-yl]-[4-[2-(1-piperidinyl)ethoxy]phenyl]-hydrochloride]
- solubility in water: very slightly soluble
